Assay results: patent publication US20200256853A1, “Models of Reconstructed Sensitive Skin” (Laboratoires Expanscience, priority 2017, published 2020)

Legend:
Type in all cases: cell-based
[1] = system: reconstructed Sensitive Skin model (reconstructed human epidermises treated with 0.6% lactic acid); assay: Intracellular measurements of inflammatory mediators (ELISA) in reconstructed Sensitive Skin model, Example 3; settings: for IL1RA/IL1-alpha ratio Change / Intracellular IL1-alpha Change / Intracellular IL1RA Change / Intracellular IL8 Change: change vs. lactic acid
Procedure: Intracellular amounts of IL-1α, IL8 and IL1-RA were determined by ELISA (R&D Systems) in ground epidermis (n=2).
(§1) Reconstructed human epidermises were obtained from the keratinocytes of a […] donor using the method derived from Poumay et al. (Arch Dermatol Res 2004; 296:203-11). After 2 days of immersion culture, the reconstructed human epidermises were cultured at the air/liquid interface for 10 days.
(§2) Epidermises at differentiation day 10 was treated or not (control) systemically with the test compounds and incubated for 24 hours.
(§3) The amount of inflammatory mediators IL-1alpha (IL1α), IL-8 and PGE2 present in skin culture supernatants was evaluated using ELISA kits (R&D Systems). • Evaluations of intracellular inflammatory markers IL-1α, IL8 and IL1-RA (n=2)
(§4) Same protocol as described in Example 2. • Determination of Poly-Unsaturated Fatty Acids (PUFAs) (n=2)

[2] = system: reconstructed Sensitive Skin model (reconstructed human epidermises treated with 0.6% lactic acid); assay: Determinations of released inflammatory mediators (ELISA) in reconstructed Sensitive Skin model, Example 3; settings: for Released IL1-alpha Change / Released IL8 Change / Released PGE2 Change: change vs. lactic acid
Procedure: as §1, §2, §3

[3] = system: reconstructed Sensitive Skin model (reconstructed human epidermises treated with 0.6% lactic acid); assay: Determination of PUFAs (GC/MS) in reconstructed Sensitive Skin model, Example 3; settings: for C18:1 Change / C18:2 LA Change / C20:4 AA Change: change vs. lactic acid
Procedure: Screening of polyunsaturated fatty acids (PUFAs) expressed by the epidermis was carried out by GC/MS analysis of samples obtained after grinding the epidermises (n=2).
The amounts were normalized by C16:0 (palmitic acid), which is representative of the overall lipid content of the epidermis.
as §1, §2, §4
Same protocol as described in Example 2.

[4] = OX100 100 μM + lactic acid 0.6%

CC1(C)[C@@H](O[C@H]2O[C@H](C(=O)[O-])[C@@H](O)[C@H](O)[C@H]2O[C@@H]2O[C@H](C(=O)[O-])[C@@H](O)[C@H](O)[C@H]2O)CC[C@]2(C)[C@H]3C(=O)C=C4[C@@H]5C[C@@](C)(C(=O)O)CC[C@]5(C)CC[C@@]4(C)[C@]3(C)CC[C@@H]12.[K+].[K+] [GLY, Dipotassium glycyrrhizinate]
IL1RA/IL1-alpha ratio Mean ± SD ([1]; GLY 0.005% + lactic acid 0.6%): 25.6 ± 1.29 | Intracellular IL1-alpha Mean ± SD ([1]; GLY 0.005% + lactic acid 0.6%): 987.5 ± 101.1 pg/mg protein | Intracellular IL1RA Mean ± SD ([1]; GLY 0.005% + lactic acid 0.6%): 25195 ± 1305 pg/mg protein | Intracellular IL8 Mean ± SD ([1]; GLY 0.005% + lactic acid 0.6%): 78.39 ± 6.350 pg/mg protein | IL1RA/IL1-alpha ratio Change ([1]; GLY 0.005% + lactic acid 0.6%): +3% | Intracellular IL1-alpha Change ([1]; GLY 0.005% + lactic acid 0.6%): −5% | Intracellular IL1RA Change ([1]; GLY 0.005% + lactic acid 0.6%): −2% | Intracellular IL8 Change ([1]; GLY 0.005% + lactic acid 0.6%): −1% | IL1RA/IL1-alpha ratio Mean ± SD ([1]; GLY 0.01% + lactic acid 0.6%): 19.1 ± 0.212 | Intracellular IL1-alpha Mean ± SD ([1]; GLY 0.01% + lactic acid 0.6%): 587.0 ± 63.64 pg/mg protein | Intracellular IL1RA Mean ± SD ([1]; GLY 0.01% + lactic acid 0.6%): 11244 ± 1341 pg/mg protein | Intracellular IL8 Mean ± SD ([1]; GLY 0.01% + lactic acid 0.6%): 50.17 ± 3.366 pg/mg protein | IL1RA/IL1-alpha ratio Change ([1]; GLY 0.01% + lactic acid 0.6%): −23% | Intracellular IL1-alpha Change ([1]; GLY 0.01% + lactic acid 0.6%): −44% | Intracellular IL1RA Change ([1]; GLY 0.01% + lactic acid 0.6%): −56% | Intracellular IL8 Change ([1]; GLY 0.01% + lactic acid 0.6%): −37% | IL1RA/IL1α ratio (in words) ([1]; concentration not given): maintained the IL1RA/IL1α ratio | Increase in intracellular IL1RA level induced by lactic acid treatment (in words) ([1]; concentration not given): significantly inhibited | Increase in intracellular IL1α level induced by lactic acid treatment (in words) ([1]; concentration not given): significantly inhibited | Increase in intracellular IL8 level induced by lactic acid treatment (in words) ([1]; concentration not given): significantly inhibited | Released IL1-alpha Mean ± Standard deviation ([2]; GLY 0.005% + lactic acid 0.6%): 28 ± 10 pg/mL | Released IL8 Mean ± Standard deviation ([2]; GLY 0.005% + lactic acid 0.6%): 211 ± 41 pg/mL | Released PGE2 Mean ± Standard deviation ([2]; GLY 0.005% + lactic acid 0.6%): 94 ± 36 pg/mL | Released IL1-alpha Change ([2]; GLY 0.005% + lactic acid 0.6%): −59% | Released IL8 Change ([2]; GLY 0.005% + lactic acid 0.6%): +1% | Released PGE2 Change ([2]; GLY 0.005% + lactic acid 0.6%): −52% | Released IL1-alpha Mean ± Standard deviation ([2]; GLY 0.01% + lactic acid 0.6%): 35 ± 16 pg/mL | Released IL8 Mean ± Standard deviation ([2]; GLY 0.01% + lactic acid 0.6%): 244 ± 138 pg/mL | Released PGE2 Mean ± Standard deviation ([2]; GLY 0.01% + lactic acid 0.6%): 137 ± 83 pg/mL | Released IL1-alpha Change ([2]; GLY 0.01% + lactic acid 0.6%): −49% | Released IL8 Change ([2]; GLY 0.01% + lactic acid 0.6%): +17% | Released PGE2 Change ([2]; GLY 0.01% + lactic acid 0.6%): −31% | Release of IL1α induced by lactic acid (in words) ([2]; concentration not given): significantly inhibited | Release of PGE2 induced by lactic acid (in words) ([2]; concentration not given): significantly inhibited | C18:1 Mean ± SD, amount normalized to C16:0 ([3]; GLY 0.005% + lactic acid 0.6%): 0.2785 | C18:2 LA Mean ± SD, amount normalized to C16:0 ([3]; GLY 0.005% + lactic acid 0.6%): 0.1600 | C20:4 AA Mean ± SD, amount normalized to C16:0 ([3]; GLY 0.005% + lactic acid 0.6%): 0.0435 | C18:1 Change ([3]; GLY 0.005% + lactic acid 0.6%): −28% | C18:2 LA Change ([3]; GLY 0.005% + lactic acid 0.6%): −25% | C20:4 AA Change ([3]; GLY 0.005% + lactic acid 0.6%): −24% | C18:1 Mean ± SD, amount normalized to C16:0 ([3]; GLY 0.01% + lactic acid 0.6%): 0.2680 | C18:2 LA Mean ± SD, amount normalized to C16:0 ([3]; GLY 0.01% + lactic acid 0.6%): 0.1440 | C20:4 AA Mean ± SD, amount normalized to C16:0 ([3]; GLY 0.01% + lactic acid 0.6%): 0.0395 | C18:1 Change ([3]; GLY 0.01% + lactic acid 0.6%): −31% | C18:2 LA Change ([3]; GLY 0.01% + lactic acid 0.6%): −32% | C20:4 AA Change ([3]; GLY 0.01% + lactic acid 0.6%): −31%

CCCCCCCCCCCC1=NC(C)(C)CO1 [OX100, Cycloceramide]
IL1RA/IL1-alpha ratio Mean ± SD ([1]; OX100 10 μM + lactic acid 0.6%): 25.6 ± 0.276 | Intracellular IL1-alpha Mean ± SD ([1]; OX100 10 μM + lactic acid 0.6%): 919.5 ± 53.03 pg/mg protein | Intracellular IL1RA Mean ± SD ([1]; OX100 10 μM + lactic acid 0.6%): 23566 ± 1624 pg/mg protein | Intracellular IL8 Mean ± SD ([1]; OX100 10 μM + lactic acid 0.6%): 76.24 ± 8.309 pg/mg protein | IL1RA/IL1-alpha ratio Change ([1]; OX100 10 μM + lactic acid 0.6%): +4% | Intracellular IL1-alpha Change ([1]; OX100 10 μM + lactic acid 0.6%): −12% | Intracellular IL1RA Change ([1]; OX100 10 μM + lactic acid 0.6%): −8% | Intracellular IL8 Change ([1]; OX100 10 μM + lactic acid 0.6%): −4% | IL1RA/IL1-alpha ratio Mean ± SD [1, 4]: 20.5 ± 0.481 | Intracellular IL1-alpha Mean ± SD [1, 4]: 713.5 ± 113.8 pg/mg protein | Intracellular IL1RA Mean ± SD [1, 4]: 14581 ± 1989 pg/mg protein | Intracellular IL8 Mean ± SD [1, 4]: 56.95 ± 7.460 pg/mg protein | IL1RA/IL1-alpha ratio Change [1, 4]: −17% | Intracellular IL1-alpha Change [1, 4]: −32% | Intracellular IL1RA Change [1, 4]: −43% | Intracellular IL8 Change [1, 4]: −28% | IL1RA/IL1α ratio (in words) ([1]; concentration not given): maintained the balance of the IL1RA/IL1α ratio | Increase in intracellular IL1RA level induced by lactic acid treatment (in words) ([1]; concentration not given): significantly inhibited | Released IL1-alpha Mean ± Standard deviation ([2]; OX100 10 μM + lactic acid 0.6%): 27 ± 13 pg/mL | Released IL8 Mean ± Standard deviation ([2]; OX100 10 μM + lactic acid 0.6%): 175 ± 30 pg/mL | Released PGE2 Mean ± Standard deviation ([2]; OX100 10 μM + lactic acid 0.6%): 98 ± 28 pg/mL | Released IL1-alpha Change ([2]; OX100 10 μM + lactic acid 0.6%): −61% | Released IL8 Change ([2]; OX100 10 μM + lactic acid 0.6%): −16% | Released PGE2 Change ([2]; OX100 10 μM + lactic acid 0.6%): −50% | Released IL1-alpha Mean ± Standard deviation [2, 4]: 31 ± 19 pg/mL | Released IL8 Mean ± Standard deviation [2, 4]: 146 ± 24 pg/mL | Released PGE2 Mean ± Standard deviation [2, 4]: 100 ± 48 pg/mL | Released IL1-alpha Change [2, 4]: −54% | Released IL8 Change [2, 4]: −30% | Released PGE2 Change [2, 4]: −49% | Release of IL1α induced by lactic acid (in words) ([2]; concentration not given): significantly inhibited | Release of IL8 induced by lactic acid (in words) ([2]; concentration not given): significantly inhibited | Release of PGE2 induced by lactic acid (in words) ([2]; concentration not given): significantly inhibited | C18:1 Mean ± SD, amount normalized to C16:0 ([3]; OX100 10 μM + lactic acid 0.6%): 0.2795 | C18:2 LA Mean ± SD, amount normalized to C16:0 ([3]; OX100 10 μM + lactic acid 0.6%): 0.1515 | C20:4 AA Mean ± SD, amount normalized to C16:0 ([3]; OX100 10 μM + lactic acid 0.6%): 0.0380 | C18:1 Change ([3]; OX100 10 μM + lactic acid 0.6%): −28% | C18:2 LA Change ([3]; OX100 10 μM + lactic acid 0.6%): −29% | C20:4 AA Change ([3]; OX100 10 μM + lactic acid 0.6%): −34% | C18:1 Mean ± SD, amount normalized to C16:0 [3, 4]: 0.2065 | C18:2 LA Mean ± SD, amount normalized to C16:0 [3, 4]: 0.0970 | C20:4 AA Mean ± SD, amount normalized to C16:0 [3, 4]: 0.0265 | C18:1 Change [3, 4]: −47% | C18:2 LA Change [3, 4]: −54% | C20:4 AA Change [3, 4]: −54%
